Measurements reported in patent US20080045514A1 (Cytovia, Inc., priority 2006, published 2008).
Where two headings read alike, the source gives them in different places.

Key:
Format in all cases: cell-based
[1] = tested on: human Burkitt's lymphoma cell line Namalwa; assay: Caspase cascade activation (EC50), Namalwa; conditions: Homo sapiens, Burkitts lymphoma cell, Namalwa cells
Protocol: (§1) Human breast cancer cell lines T-47D, human hepatocellular carcinoma cell line SNU398, human colon carcinoma cell line HCT116, human cancer cell line H1299, human Burkitt's lymphoma cell line Namalwa, human lymphoma cell line Raji, and human B cell lymphoblastoid cell line Ramos were grown according to media component mixtures designated by American Type Culture Collection+10% FCS (Invitrogen Corporation), in a 5% CO2-95% humidity incubator at 37° C. T-47D and H1299 cells were maintained at a cell density between 50 and 80% confluency at a cell density of 0.1 to 0.6×10^6 cells/mL. Cells were harvested at 600×g and resuspended at 0.65×10^6 cells/mL into appropriate media+10% FCS. An aliquot of 22.5 μL of cells was added to a well of a 384-well microtiter plate containing 2.5 μL of a 10% DMSO in RPMI-1640 media solution containing 0.16 to 100 μM of 3-(2-chlorophenyl)-6-(3,4-methylenedioxyphenyl)-7H-[1,2,4]triazolo[3,4-b][1,3,4]thiadiazine or other test compound (0.016 to 10 μM final). An aliquot of 22.5 μL of cells was added to a well of a 384-well microtiter plate containing 2.5 μL of a 10% DMSO in RPMI-1640 media solution without test compound as the control sample. The samples were mixed by agitation and then incubated at 37° C. for 48 h in a 5% CO2-95% humidity incubator. After incubation, the samples were removed from the incubator and 25 μL of a solution containing 14 μM of N—(Ac-DEVD)-N′-ethoxycarbonyl-R110 (SEQ ID No.:1) fluorogenic substrate (Cytovia, Inc.; WO99/18856), 20% sucrose (Sigma), 20 mM DTT (Sigma), 200 mM NaCl (Sigma), 40 mM Na PIPES buffer pH 7.2 (Sigma), and 500 μg/mL lysolecithin (Calbiochem) was added. The samples were mixed by agitation and incubated at room temperature. Using a fluorescent plate reader (Model SPECTRAfluor Plus, Tecan), an initial reading (T=0) was made approximately 1-2 min after addition of the substrate solution, employing excitation at 485 nm and emission at 530 nm, to determine the background fluorescence of the control sample. After the 3 h incubation, the samples were read for fluorescence as above (T=3 h). Calculation: The Relative Fluorescence Unit values (RFU) were used to calculate the sample readings as follows: RFU(T=3H)−Control RFU(T=0)=Net RFU(T=3h) The activity of caspase cascade activation was determined by the ratio of the net RFU value for 3-(2-chlorophenyl)-6-(3,4-methylenedioxyphenyl)-7H-[1,2,4]triazolo[3,4-b][1,3,4]thiadiazine (Example P) or other test compound to that of control samples. The EC50 (nM) was determined by a sigmoidal dose-response calculation (Prism 3.0, GraphPad Software Inc.).

[2] = tested on: human breast cancer cell line T-47D; assay: Caspase cascade activation (EC50), T-47D; conditions: Homo sapiens, T47D cells
Protocol: as §1

[3] = tested on: human colon carcinoma cell line HCT116; assay: Caspase cascade activation (EC50), HCT116; conditions: Homo sapiens, HCT-116, HCT116 cells
Protocol: as §1

[4] = tested on: human hepatocellular carcinoma cell line SNU398; assay: Caspase cascade activation (EC50), SNU398; conditions: Homo sapiens, SNU-398, SNU398 cells
Protocol: as §1

[5] = caspase cascade activation, read-out: caspase potency (EC50) Namalwa
[6] = caspase cascade activation, read-out: caspase potency (EC50) T47D
[7] = caspase cascade activation, read-out: caspase potency (EC50) HCT116
[8] = caspase cascade activation, read-out: caspase potency (EC50) SNU398

Structure (SMILES) | EC50 [1, 5] [nM] | EC50 [2, 6] [nM] | EC50 [3, 7] [nM] | EC50 [4, 8] [nM] | EC50 ([1]; read-out: Caspase potency (EC50) Namalwa) [nM] | EC50 ([2]; read-out: Caspase potency (EC50) T47D) [nM] | EC50 ([3]; read-out: Caspase potency (EC50) HCT116) [nM] | EC50 ([4]; read-out: Caspase potency (EC50) SNU398) [nM]
Cc1ccc(C2=Nn3c(nnc3-c3snnc3C)SC2)cc1 [Example 93, 3-(4-Methyl-1,2,3-thiadiazol-5-yl)-6-(4-methylphenyl)-7H-[1,2,4]triazolo[3,4-b][1,3,4]thiadiazine] | > 10000 | > 10000 | > 10000 | > 10000 |  |  |  | 
COc1ccccc1-c1nnc2n1N=C(c1ccc(NC(C)=O)c([N+](=O)[O-])c1)CS2 [Example 56, 6-(4-Acetamido-3-nitrophenyl)-3-(2-methoxyphenyl)-7H-[1,2,4]triazolo[3,4-b][1,3,4]thiadiazine] | 270 | 476 | 506 | 328 |  |  |  | 
Cc1ccc(C2=Nn3c(nnc3-c3ccc(Cl)cc3C)SC2)cc1N [Example 91, 6-(3-Amino-4-methylphenyl)-3-(4-chloro-2-methylphenyl)-7H-[1,2,4]triazolo[3,4-b][1,3,4]thiadiazine] | 16 | 63 | 30 | 28 |  |  |  | 
COc1cccc(C2=Nn3c(nnc3-c3ccc(Cl)cc3Cl)SC2)c1 [Example O3] | 585 | 1300 | 2620 | 765 |  |  |  | 
COc1ccccc1-c1nnc2n1N=C(c1cccc(C)c1)CS2 [Example 82, 3-(2-Methoxyphenyl)-6-(3-methylphenyl)-7H-[1,2,4]triazolo[3,4-b][1,3,4]thiadiazine] | 497 | 605 | 370 | 500 |  |  |  | 
COc1ccccc1-c1nnc2n1N=C(c1ccccc1)CS2 [Example K3] | 2830 | 3650 | 5330 | 3780 |  |  |  | 
COc1ccccc1-c1nnc2n1N=C(c1cc(Br)c(N)c(Br)c1)CS2 [Example 78, 6-(4-Amino-3,5-dibromophenyl)-3-(2-methoxyphenyl)-7H-[1,2,4]triazolo[3,4-b][1,3,4]thiadiazine] | 73 | 259 | 124 | 51 |  |  |  | 
COc1cc(-c2nnc3n2N=C(c2ccc(N(C)C)cc2)CS3)cc(OC)c1OC [Example 67, 6-(4-Dimethylaminophenyl)-3-(3,4,5-trimethoxyphenyl)-7H-[1,2,4]triazolo[3,4-b][1,3,4]thiadiazine] | 61 | 175 | 58 | 43 |  |  |  | 
Cc1ccccc1-c1nnc2n1N=C(c1ccc(C)c([N+](=O)[O-])c1)CS2 [Example 53, 6-(4-Methyl-3-nitrophenyl)-3-(2-methylphenyl)-7H-[1,2,4]triazolo[3,4-b][1,3,4]thiadiazine] | > 10000 | > 10000 | > 10000 | > 10000 |  |  |  | 
Cc1ccc(C2=Nn3c(nnc3-c3ccoc3C)SC2)cc1 [Example 83, 3-(2-Methylfuran-3-yl)-6-(4-methylphenyl)-7H-[1,2,4]triazolo[3,4-b][1,3,4]thiadiazine] | 332 | 2540 | 683 | 523 |  |  |  | 
CCN(CC)S(=O)(=O)c1ccc(C2=Nn3c(nnc3-c3ccccc3C)SC2)cc1 [Example 52, 6-(4-(N,N-Diethylaminosulfonyl)phenyl)-3-(2-methylphenyl)-7H-[1,2,4]triazolo[3,4-b][1,3,4]thiadiazine] | > 10000 | > 10000 | > 10000 | > 10000 |  |  |  | 
Cc1ccc(C2=Nn3c(nnc3-c3ccc[nH]3)SC2)cc1 [Example 92, 6-(4-Methylphenyl)-3-(1H-pyrrol-2-yl)-7H-[1,2,4]triazolo[3,4-b][1,3,4]thiadiazine] | > 10000 | > 10000 | > 10000 | > 10000 |  |  |  | 
COc1ccccc1C1=Nn2c(nnc2-c2ccccc2OC)SC1 [Example 64, 3-(2-Methoxyphenyl)-6-(2-methoxylphenyl)-7H-[1,2,4]triazolo[3,4-b][1,3,4]thiadiazine] | > 10000 | > 10000 | > 10000 | > 10000 |  |  |  | 
COc1ccccc1-c1nnc2n1NC(c1ccc(C)cc1)CS2 (stereo not drawn) [Example 88, 5,6-Dihydro-3-(2-methoxyphenyl)-6-(4-methylphenyl)-7H-[1,2,4]triazolo[3,4-b][1,3,4]thiadiazine] | 1530 | 5330 | 2800 | 2530 |  |  |  | 
COc1ccccc1-c1nnc2n1N=C(c1ccc(C(C)C)cc1)CS2 [Example 44, 6-(4-Isopropylphenyl)-3-(2-methoxyphenyl)-7H-[1,2,4]triazolo[3,4-b][1,3,4]thiadiazine] | 248 | 281 | 275 | 243 |  |  |  | 
COc1cc(C2=Nn3c(nnc3-c3ccccc3OC)SC2)ccc1N [Example 57, 6-(4-Amino-3-methoxyphenyl)-3-(2-methoxyphenyl)-7H-[1,2,4]triazolo[3,4-b][1,3,4]thiadiazine] | 2330 | 2640 | 2870 | 2280 |  |  |  | 
Cc1ccc(C2=Nn3c(nnc3-c3ccccc3S(C)(=O)=O)SC2)cc1 [Example 73, 3-(2-Methylsulfonylphenyl)-6-(4-methylphenyl)-7H-[1,2,4]triazolo[3,4-b][1,3,4]thiadiazine] | > 10000 | > 10000 | > 10000 | > 1000 |  |  |  | 
COc1ccccc1-c1nnc2n1N=C(c1ccn(C)c1)CS2 [Example 86, 3-(2-Methoxyphenyl)-6-(1-methyl-1H-pyrrol-3-yl)-7H-[1,2,4]triazolo[3,4-b][1,3,4]thiadiazine] | 320 | 525 | 1320 | 380 |  |  |  | 
Cc1ccc(C2=Nn3c(nnc3-c3cc([N+](=O)[O-])cn3C)SC2)cc1 [Example 95, 3-(1-Methyl-4-nitro-1H-pyrrol-2-yl)-6-(4-methylphenyl)-7H-[1,2,4]triazolo[3,4-b][1,3,4]thiadiazine] |  |  |  |  | 328 | 2700 | 693 | 478
Cc1ccc(C2=Nn3c(nnc3-c3ccccc3N)SC2)cc1 [Example 74, 3-(2-Aminophenyl)-6-(4-methylphenyl)-7H-[1,2,4]triazolo[3,4-b][1,3,4]thiadiazine] | 507 | > 10000 | 557 | 529 |  |  |  | 
COc1ccccc1-c1nnc2n1N=C(c1ccc(OC(F)(F)F)cc1)CS2 [Example 50, 3-(2-Methoxyphenyl)-6-(4-(trifluoromethoxy)phenyl)-7H-[1,2,4]triazolo[3,4-b][1,3,4]thiadiazine] | 500 | 549 | 564 | 530 |  |  |  | 
COc1ccccc1-c1n[nH]c2nc(=O)c(-c3ccc(C)cc3)nn12 [Example 38, 3-(2-Methoxyphenyl)-6-(4-methylphenyl)-1H-[1,2,4]triazolo[4,3-b][1,2,4]triazin-7-one] | > 10000 | > 10000 | > 10000 | > 10000 |  |  |  | 
COc1ccccc1-c1nnc2n1N=C(c1ccc(Cl)c([N+](=O)[O-])c1)CS2 [Example 55, 6-(4-Chloro-3-nitrophenyl)-3-(2-methoxyphenyl)-7H-[1,2,4]triazolo[3,4-b][1,3,4]thiadiazine] | > 10000 | 2040 | > 10000 | 1870 |  |  |  | 
Cc1ccc(C2=Nn3c(nnc3-c3cccn3C)SC2)cc1 [Example 94, 3-(1-Methyl-1H-pyrrol-2-yl)-6-(4-methylphenyl)-7H-[1,2,4]triazolo[3,4-b][1,3,4]thiadiazine] | 1290 | 2630 | 5510 | 1440 |  |  |  | 
